Measurements reported in patent US20230416205A1, “COMPOUNDS, COMPOSITIONS, AND METHODS” (Denali Therapeutics Inc, priority 2020, published 2023).
Read-outs that look alike come from different tables or passages of the source.

Tested on: NLRP3
Assay: IL-1β secretion assay in PMA-differentiated, LPS/nigericin-stimulated THP-1 cells (384-well, ELISA read-out)
Type: cell-based, human
Description: Compounds as provided herein were tested in the following assay. Cell culture medium employed contained RPMI 1640 medium (89%), FBS (10%), Pen/Strep (1%), and 2-mercaptoethanol (0.05 mM). Freezing medium was made up of 90% FBS and 10% DMSO. THP-1 cells were removed from the liquid nitrogen and placed into a 37° C. water bath to thaw, until signs of ice dissipated. The cells were then added to 9 mL of warm cell culture medium and centrifuged for 5 minutes at 1000 rpm. The supernatant was discarded, and the cells were resuspended in new cell culture medium. THP-1 cells were then split and cultured in the cell culture medium, being passaged every 2-3 days with the cell density will be maintained between 5×10^5 and 1.5×10^6 viable cells/mL.
To freeze, cells were resuspended with fresh freezing medium, adjusting the cell density to 5×10^6 cells/mL. The cell suspension was partitioned into 1 mL aliquots per vial, and the vials were transferred to a −80° C. freezer. After one day at −80° C., the cell vials were transferred to liquid nitrogen freezer for storage.
PMA was dissolved in DMSO to make a stock solution at 5 mg/mL and stored in 10 μl aliquots at −20° C. for single use. PMA is added to normal growth medium. LPS was diluted with 1 mL of water solution to provide a 1 mg/mL stock solution and stored in 15 μl aliquots at −20° C. for single use. Nigericin is diluted in ice cold 100% ethanol to 5 mg/mL (6.7 mM) and stored in 75 μL aliquots at −20° C. for single use. Serum-free media contains RPMI 1640 medium (99%), Pen/Strep (1%), and 2-mercaptoethanol (0.05 mM). The two control conditions used to qualify and normalize test compound dose-response curves were as follows: High Control=25 ng/mL LPS, 5 μM Nigericin, 0.5% DMSO, Low Control=25 ng/mL, LPS, 0.5% DMSO.
THP-1 cells were diluted to provide a suspension at a concentration of 1.0×10^6 cells/mL with the total volume of suspension required to enable the desired number of assay plates. The growth media was supplemented with PMA (5 ng/mL final concentration) and the cells were incubated at 37° C. under a humidified atmosphere of 5% CO2 for 40 h.
All media was carefully aspirated from each culture flask. The cells were washed carefully with 1×DPBS. The cells were then briefly digested with trypsin LE for 5 minutes at 23° C., and immediately resuspended in cell growth media. After resuspension, the cells were centrifuged at 1000 rpm for 3 minutes and the supernatant was discarded. The cells were resuspended in DPBS and once again centrifuged at 1000 rpm for 5 minutes. The supernatant was discarded and the cell pellet was resuspended in serum-free media supplemented with LPS (25 ng/mL final concentration) to enable the distribution of 30K THP-1 cells within 45 μL of media into each well of 384-well PDL-coated plates. The 384-well plates were then incubated at 37° C. under a humidified atmosphere of 5% CO2 for 2 h. Following this period, test compounds were dispensed by Tecan across the desired concentration range with all wells normalized to a final 0.5% DMSO concentration. The plates were then incubated at 37° C. under a humidified atmosphere of 5% CO2 for 1 h. Following this period, 5 μL of the […] was added to each of the appropriate wells and plates were centrifuged at 1000 rpm for 30 seconds. The plates were the immediately reintroduced to the incubator at 37° C. under a humidified atmosphere of 5% CO2 for 2 h. After this time, 35 μL/well of supernatant was collected and transferred into v-bottom plate and centrifuged at 1000 rpm for 1 minute. These supernatant aliquots were analyzed using an IL-Iβ detection kit as described below. If needed, the test samples could be snap frozen and stored at −80° C. until analyzed.
To prepare each ELISA plate, capture antibody (mAb Mt175) was diluted with PBS to a final concentration of 2 μg/mL and then 20 μL of this solution was added to each well of the ELISA plate. Each plate was allowed to incubate overnight at 4° C.

[1] = Homo sapiens, THP-1, IL-1β secretion, PMA-differentiated THP-1 cells, LPS then nigericin stimulation, ELISA read at 450 nm, read-out: Activity
[2] = Table 4, IL-1β secretion, LPS/nigericin-stimulated THP-1 cells, read-out: IC50
[3] = IL-1β secretion, PMA-differentiated THP-1 cells, LPS then nigericin stimulation, ELISA read at 450 nm, read-out: Activity
[4] = Homo sapiens, THP-1, Table 4, IL-1β secretion, LPS/nigericin-stimulated THP-1 cells, read-out: IC50

Row | Compound | IC50 [1] [nM] | IC50 [2] [nM] | IC50 [3] [nM] | IC50 [4] [nM]
1 | O=C(CN1C[C@@]2(C[C@@H]2F)c2cc(C(F)(F)F)ccc2C1=O)Nc1ncccn1 (single isomer, unassigned) [Example 240, 2-[(2′s,4r)-2′-fluoro-1-oxo-6-(trifluoromethyl)spiro[3H-isoquinoline-4,1′-cyclopropane]-2-yl]-N-pyrimidin-2-ylacetamide] | < 10000 | 1220 | – | –
2 | O=C(CN1C[C@@]2(C[C@@H]2F)c2cc(C(F)(F)F)ccc2C1=O)Nc1ncccn1 (single isomer, unassigned) [Example 241, 2-[(2′s,4r)-2′-fluoro-1-oxo-6-(trifluoromethyl)spiro[3H-isoquinoline-4,1′-cyclopropane]-2-yl]-N-pyrimidin-2-ylacetamide] | – | 134 | < 10000 | –
3 | O=C(CN1C[C@@]2(C[C@@H]2F)c2cc(C(F)(F)F)ccc2C1=O)Nc1ncc(C(F)(F)F)cn1 (single isomer, unassigned) [Example 242, 2-[(2′s,4r)-2′-fluoro-1-oxo-6-(trifluoromethyl)spiro[3H-isoquinoline-4,1′-cyclopropane]-2-yl]-N-[5-(trifluoromethyl)pyrimidin-2-yl]acetamide] | < 10000 | 1290 | – | –
4 | O=C(CN1C[C@@]2(C[C@@H]2F)c2cc(C(F)(F)F)ccc2C1=O)Nc1ncc(C(F)(F)F)cn1 (single isomer, unassigned) [Example 243, 2-[(2′s,4r)-2′-fluoro-1-oxo-6-(trifluoromethyl)spiro[3H-isoquinoline-4,1′-cyclopropane]-2-yl]-N-[5-(trifluoromethyl)pyrimidin-2-yl]acetamide] | – | 95 | < 10000 | –
5 | Cc1cnc(NC(=O)CN2C[C@@]3(C[C@@H]3F)c3cc(C(F)(F)F)ccc3C2=O)nc1 (single isomer, unassigned) [Example 244, 2-[(2′s,4r)-2′-fluoro-1-oxo-6-(trifluoromethyl)spiro[3H-isoquinoline-4,1′-cyclopropane]-2-yl]-N-(5-methylpyrimidin-2-yl)acetamide] | < 10000 | 75 | – | –
6 | Cc1cnc(NC(=O)CN2C[C@@]3(C[C@@H]3F)c3cc(C(F)(F)F)ccc3C2=O)nc1 (single isomer, unassigned) [Example 245, 2-[(2′s,4r)-2′-fluoro-1-oxo-6-(trifluoromethyl)spiro[3H-isoquinoline-4,1′-cyclopropane]-2-yl]-N-(5-methylpyrimidin-2-yl)acetamide] | – | 938 | < 10000 | –
7 | O=C(CN1CC2(CC2)c2cc([C@@]3(F)C[C@@H]3F)ccc2C1=O)Nc1ncc(F)cn1 (single isomer, unassigned) [Example 251, 2-[6-[(1r,2r)-1,2-difluorocyclopropyl]-1-oxospiro[3H-isoquinoline-4,1′-cyclopropane]-2-yl]-N-(5-fluoropyrimidin-2-yl)acetamide] | < 10000 | – | – | 550
8 | O=C(CN1CC2(CC2)c2cc([C@@]3(F)C[C@@H]3F)ccc2C1=O)Nc1ncc(F)cn1 (single isomer, unassigned) [Example 252, 2-[6-[(1r,2r)-1,2-difluorocyclopropyl]-1-oxospiro[3H-isoquinoline-4,1′-cyclopropane]-2-yl]-N-(5-fluoropyrimidin-2-yl)acetamide] | – | 454 | < 10000 | –
9 | O=C(CN1CC2(CC2)c2cc([C@@]3(F)C[C@H]3F)ccc2C1=O)Nc1ncc(F)cn1 (single isomer, unassigned) [Example 253, 2-[6-[(1r,2s)-1,2-difluorocyclopropyl]-1-oxospiro[3H-isoquinoline-4,1′-cyclopropane]-2-yl]-N-(5-fluoropyrimidin-2-yl)acetamide] | < 10000 | – | – | 597
10 | O=C(CN1CC2(CC2)c2cc([C@@]3(F)C[C@H]3F)ccc2C1=O)Nc1ncc(F)cn1 (single isomer, unassigned) [Example 254, 2-[6-[(1r,2s)-1,2-difluorocyclopropyl]-1-oxospiro[3H-isoquinoline-4,1′-cyclopropane]-2-yl]-N-(5-fluoropyrimidin-2-yl)acetamide] | – | 434 | < 10000 | –
11 | C[C@@H]1[C@H](F)[C@]12CN(CC(=O)Nc1ncc(F)cn1)C(=O)c1ccc(Br)cc12 (single isomer, unassigned) [Example 277, 2-[(2′s,3′s,4r)-6-bromo-2′-fluoro-3′-methyl-1-oxospiro[3H-isoquinoline-4,1′-cyclopropane]-2-yl]-N-(5-fluoropyrimidin-2-yl)acetamide] | < 10000 | 21 | – | –
12 | C[C@@H]1[C@H](F)[C@]12CN(CC(=O)Nc1ncc(F)cn1)C(=O)c1ccc(Br)cc12 (single isomer, unassigned) [Example 278, 2-[(2′s,3′s,4r)-6-bromo-2′-fluoro-3′-methyl-1-oxospiro[3H-isoquinoline-4,1′-cyclopropane]-2-yl]-N-(5-fluoropyrimidin-2-yl)acetamide] | – | 1790 | < 10000 | –
13 | C[C@H]1C[C@]12CN(CC(=O)Nc1ncc(F)cn1)C(=O)c1ccc(Br)cc12 (single isomer, unassigned) [Example 279, 2-[(2′s,4s)-6-bromo-2′-methyl-1-oxospiro[3H-isoquinoline-4,1′-cyclopropane]-2-yl]-N-(5-fluoropyrimidin-2-yl)acetamide] | > 15000 | 22400 | – | –
14 | C[C@H]1C[C@]12CN(CC(=O)Nc1ncc(F)cn1)C(=O)c1ccc(Br)cc12 (single isomer, unassigned) [Example 280, 2-[(2′s,4s)-6-bromo-2′-methyl-1-oxospiro[3H-isoquinoline-4,1′-cyclopropane]-2-yl]-N-(5-fluoropyrimidin-2-yl)acetamide] | – | 2370 | < 10000 | –
15 | C[C@H]1C[C@@]12CN(CC(=O)Nc1ncc(F)cn1)C(=O)c1ccc(Br)cc12 (single isomer, unassigned) [Example 281, 2-[(2′s,4r)-6-bromo-2′-methyl-1-oxospiro[3H-isoquinoline-4,1′-cyclopropane]-2-yl]-N-(5-fluoropyrimidin-2-yl)acetamide] | < 10000 | 108 | – | –
16 | C[C@H]1C[C@@]12CN(CC(=O)Nc1ncc(F)cn1)C(=O)c1ccc(Br)cc12 (single isomer, unassigned) [Example 282, 2-[(2′s,4r)-6-bromo-2′-methyl-1-oxospiro[3H-isoquinoline-4,1′-cyclopropane]-2-yl]-N-(5-fluoropyrimidin-2-yl)acetamide] | – | 1050 | < 10000 | –
17 | O=C(CN1C[C@@]2(C[C@@H]2Cl)c2cc(Br)ccc2C1=O)Nc1ncc(F)cn1 (single isomer, unassigned) [Example 283, 2-[(2′r,4s)-6-bromo-2′-chloro-1-oxospiro[3H-isoquinoline-4,1′-cyclopropane]-2-yl]-N-(5-fluoropyrimidin-2-yl)acetamide] | < 10000 | 101 | – | –
18 | O=C(CN1C[C@@]2(C[C@@H]2Cl)c2cc(Br)ccc2C1=O)Nc1ncc(F)cn1 (single isomer, unassigned) [Example 284, 2-[(2′r,4s)-6-bromo-2′-chloro-1-oxospiro[3H-isoquinoline-4,1′-cyclopropane]-2-yl]-N-(5-fluoropyrimidin-2-yl)acetamide] | – | 50 | < 10000 | –
